{"source": "paper PMC11313072", "about": "“Copper(II) and Zinc(II) Complexes with Bacterial Prodigiosin Are Targeting Site III of Bovine Serum Albumin and Acting as DNA Minor Groove Binders” (International Journal of Molecular Sciences, 2024)", "target": "T1, bovine serum albumin (BSA) (Bos taurus, UniProt P02769)", "T1 construct": "gene ALB; commercial native full-length BSA (Sigma-Aldrich), mature secreted protein", "T1 sequence (P02769 25-607)": "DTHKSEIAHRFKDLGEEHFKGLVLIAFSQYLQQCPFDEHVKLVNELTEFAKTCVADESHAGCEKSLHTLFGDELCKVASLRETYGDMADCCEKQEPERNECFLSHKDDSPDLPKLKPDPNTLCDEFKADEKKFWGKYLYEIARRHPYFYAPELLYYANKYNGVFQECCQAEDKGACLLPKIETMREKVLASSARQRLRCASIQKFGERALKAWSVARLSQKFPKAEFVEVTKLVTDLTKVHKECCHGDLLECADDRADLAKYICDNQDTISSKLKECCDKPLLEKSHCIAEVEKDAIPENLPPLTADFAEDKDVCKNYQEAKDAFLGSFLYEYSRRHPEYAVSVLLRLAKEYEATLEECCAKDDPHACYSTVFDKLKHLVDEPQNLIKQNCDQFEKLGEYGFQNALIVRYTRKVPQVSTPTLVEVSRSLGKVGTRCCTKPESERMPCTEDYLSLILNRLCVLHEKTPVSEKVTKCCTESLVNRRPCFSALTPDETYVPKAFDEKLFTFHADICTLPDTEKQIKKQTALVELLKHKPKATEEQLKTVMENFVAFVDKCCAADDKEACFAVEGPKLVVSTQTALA", "experiment": "tryptophan fluorescence quenching", "assay_type": "binding", "settings": "PBS pH 7.4, BSA 5 μM, excitation 280 nm, no site marker, double-log", "source_text": "tryptophan fluorescence quenching on bovine serum albumin (BSA)", "data": [{"compound": "ZnPG", "values": [{"measurement": "KA", "setting": "n = 1.07", "result": 7140, "unit": "M⁻¹"}]}, {"compound": "CCCCCC1=C/C(=C/c2[nH]c(-c3ccc[nH]3)cc2OC)N=C1C", "note": "[PG, prodigiosin]", "values": [{"measurement": "KA", "setting": "n = 0.97", "result": 5770, "unit": "M⁻¹"}]}, {"compound": "CuPG", "values": [{"measurement": "KA", "setting": "n = 1.41", "result": 805000, "unit": "M⁻¹"}]}]}
